Legend:
[1] = test system: purebred beagle dogs; conditions: single intra-articular dose via Capsaicin Formulation A
[2] = in vivo; conditions: both sexes, New Zealand White, rabbit, rabbits, 0.3 mg trans-capsaicin as Capsaicin Formulation A, intra-articular, Day 1, combined males and females
Description: Animals were administered a single dose of test article (i.e., Capsaicin Formulation A, or placebo) on Day 1 via intra-articular injection into the right stifle joint. Dosing was followed by an observation period of 4 weeks. […] Prior to injection of test article, animals were sedated via gas anesthesia with sevoflurane. The gas was administered by designated technicians using a nose cone. Following anesthesia but prior to intra-articular injection, the injection site was prepared aseptically with three or more chlorhexidine scrubs, wiping with sterile water between each scrub. Animals were administered 1 mg/kg of midazolam and 0.6 mg/kg of meloxicam SR subcutaneously prior to gas anesthesia. […] The animal was monitored for pain and discomfort during recovery and was returned to its home cage after complete recovery. […] Additional pain management of animals was monitored by veterinary staff.
Assessment of toxicity was based on mortality, clinical observations (including qualitative food consumption), body weights, physical examinations, and clinical and anatomic pathology. […] Plasma samples were analyzed for capsaicin content. […] Abnormal findings or an indication of normal were recorded. Body weights were recorded twice during the pre-dose phase and on Days 1, 8, 15, and 22 of the dosing phase. […]

[3] = test system: New Zealand White rabbits; conditions: single intra-articular dose as Capsaicin Formulation A

Compound: COc1cc(CNC(=O)CCCCC=CC(C)C)ccc1O [trans-capsaicin, N-[(4-hydroxy-3-methoxyphenyl)methyl]-8-methylnon-6-enamide]
- no observed adverse effect level (NOAEL) [1]: 1 mg
- Cmax [2]: 37.9 ng/mL
- AUC(0-t) ([2]; read-out: mean AUC0-24): 27.8 ng·h/mL
- no observed adverse effect level (NOAEL) [3]: 0.3 mg
